≈ marks a conversion by molar mass, not a printed value.
Columns and labels:
[1] = tested on: T. rubrum; test: Minimum Inhibitory Concentration (MIC) (T. rubrum), CLSI M27-A2; assay type: cell-based; conditions: Trichophyton rubrum; about 50% growth reduction, approx. 96 h at 35 °C, RPMI+MOPS
Procedure: Compounds of the present disclosure were assessed for their ability to inhibit the growth of common strains of fungus, T. rubrum using a standardized procedure (CLSI M27-A2). Stock solutions of the test compounds and standards were prepared in DMSO at 1,600 μg/mL (T. rubrum). Eleven, serial, one-half dilutions of compounds were prepared in 96-well plates in RPMI+MOPS. The assay concentration ranges were 8-0.001 μg/mL (T. rubrum). Cell suspensions of T. rubrum were prepared and added to each well at concentrations of approximately 3.7×10^3 colony-forming-units per milliliter (cfu/mL). All testing was in duplicate. The inoculated plates were incubated for approximately 96 h at 35±1° C. At the completion of incubation the wells of each plate were evaluated visually for the presence of fungal growth. […] For voriconazole the MIC was the concentration which reduced T rubrum growth by 50% (per CLSI, M27-A2). For QC purposes C. krusei isolate ATCC 6258 (4.0×10^3 cfu/mL) was included in the VOR assay.

[2] = tested on: Septoria tritici (ATCC 26517); test: Minimum Inhibitory Concentration (MIC) vs. Septoria tritici, CLSI-based microdilution; assay type: cell-based; conditions: Zymoseptoria tritici, ATCC26517, 168 h; MIC = 50% reduction in growth of S. tritici, 7 days at 22 °C, RPMI/MOPS, 1% DMSO; read-out: Septoria Rating (MIC)
Procedure: Compounds of the present disclosure were assessed for their ability to inhibit the growth of a common strain of the fungal plant pathogen Septoria tritici (ATCC 26517) using a procedure based on a Clinical and Laboratory Standards Institute (CLSI) microdilution assay protocol for filamentous fungi. Stock solutions of the test compounds and standards were prepared in DMSO at 6400 μg/mL. Each stock solution was used to prepare a 2-fold dilution series ranging from 16 to 0.016 μg/mL (total of 11 compound concentrations) in RPMI-1640 (Roswell Park Memorial Institute) medium containing 3-(N-morpholino)propanesulfonic acid (MOPS) buffer and 2% DMSO. A 100 μL aliquot of the dilutions was added to columns 1 (16 μg/mL compound) through 11 (0.016 μg/mL compound) of a 96-well microtiter plate. This format was replicated in a second row of the microtiter plate. Thus, each microtiter plate could include 11 concentrations of four test or control compounds replicated twice. A 100 μL aliquot of RPMI-1640/MOPS/2% DMSO medium was added to column 12 (no compound control) of the microtiter plate. A fresh culture of S. tritici was used to prepare a solution of approximately 5×10^4 colony-forming units per milliliter (cfu/mL) in RPMI/MOPS medium without DMSO. A 100 μL aliquot of this solution was added to all 96 wells in the microtiter plate. […] In each case of Table 3 the Septoria rating scale is as follows: […]

[3] = tested on: Puccinia recondita tritici = Puccinia triticina (PUCCRT); test: Fungicidal activity vs. leaf rust on wheat plants (1-day protectant spray); assay type: in vivo; conditions: wheat (variety Yuma) sprayed at 50 ppm, inoculated next day, disease severity evaluated 7-9 days later, read-out: Puccinia Rating (% Disease Control @ 50 ppm)
Excerpt: Each pot contained 3-8 seedlings. These plants were sprayed until wet with the formulated test compounds. The compounds were formulated at 50 ppm in 10 vol. % acetone plus 90 vol. % Triton X water (deionized water 99.99 wt %+0.01 wt % Triton X100), giving a “formulated test compound.” Formulated test compounds were applied to plants using a turn table sprayer fitted with two opposing air atomization nozzles which delivered approximately 1500 L/ha of spray volume. On the following day, the leaves were inoculated with an aqueous spore suspension of Puccinia recondita tritici and the plants were kept in high humidity overnight to permit spores to germinate and infect the leaf. The plants were then transferred to a greenhouse until disease developed on untreated control plants. Disease severity was evaluated 7-9 days later, depending on the speed of disease development. In each case of Table 3, the Puccinia rating scale is as follows: […]

Work on OC(c1cncnc1)(c1ccc(F)cc1F)C(F)(F)c1ccc(Br)cn1 (racemic) [Example 1, 2-(5-bromopyridin-2-yl)-1-(2,4-difluorophenyl)-2,2-difluoro-1-(pyrimidin-5-yl)ethanol] yielded an MIC [1] of 0.125 µg/mL (≈ 0.292 µM) and an MIC [2] of 0.5 to 1.5 µg/mL (≈ 1.17 to 3.5 µM).

Work on C[C@@H](c1ncncc1F)[C@](O)(Cn1cncn1)c1ccc(F)cc1F [Voriconazole, voriconazole, reference compound] yielded an MIC [1] of 0.062 µg/mL (≈ 0.177 µM).

OC(c1cncnc1)(c1ccc(F)cc1F)C(F)(F)c1ccc(C#Cc2ccc(F)cc2)cn1 (racemic) [Example 2, 1-(2,4-difluorophenyl)-2,2-difluoro-2-(5-((4-fluorophenyl)ethynyl)pyridin-2-yl)-1-(pyrimidin-5-yl)ethanol] showed an MIC [1] of 0.25 µg/mL (≈ 0.535 µM), a pest or weed control at 50 ppm [3] of 80 to 100% and an MIC [2] of at most 0.5 µg/mL.

OC(c1cncnc1)(c1ccc(F)cc1F)C(F)(F)c1ccc(-c2ccc(OC(F)(F)F)cc2)cn1 (racemic) [Example 3, 1-(2,4-difluorophenyl)-2,2-difluoro-1-(pyrimidin-5-yl)-2-(5-(4-(trifluoromethoxy)phenyl)pyridin-2-yl)ethanol] showed a pest or weed control at 50 ppm [3] of under 40% and an MIC [2] of 0.5 to 1.5 µg/mL (≈ 0.982 to 2.94 µM).

OC(c1cncnc1)(c1ccc(F)cc1F)C(F)(F)c1ccc(OCC(F)(F)F)cn1 (racemic) [Example 34] was tested, and the pest or weed control at 50 ppm [3] was 80 to 100% and the MIC [2] was 0.5 to 1.5 µg/mL (≈ 1.12 to 3.35 µM).

In the case of OC(c1cncnc1)(c1ccc(F)cc1F)C(F)(F)c1ccc(OCc2ccc(Cl)c(Cl)c2)cn1 (stereo not shown) [Example 52], the pest or weed control at 50 ppm [3] is reported as 60 to 79% and the MIC [2] is reported as 0.5 to 1.5 µg/mL (≈ 0.954 to 2.86 µM).

For O=[N+]([O-])c1ccc(C#Cc2ccc(C(F)(F)C(O)(c3cncnc3)c3ccc(F)cc3F)nc2)cc1 (racemic) [Example 16, 1-(2,4-Difluorophenyl)-2,2-difluoro-2-(5-((4-nitrophenyl)ethynyl)pyridin-2-yl)-1-(pyrimidin-5-yl)ethanol], the pest or weed control at 50 ppm [3] was 60 to 79% and the MIC [2] was at most 0.5 µg/mL.

OC(c1cncnc1)(c1ccc(F)cc1F)C(F)(F)c1ccc(OCc2ccc(F)c(F)c2)cn1 (racemic) [Example 60] gave a pest or weed control at 50 ppm [3] of 60 to 79% and an MIC [2] of 0.5 to 1.5 µg/mL (≈ 1.02 to 3.05 µM).

For O=C(Nc1ccc(C#Cc2ccc(C(F)(F)C(O)(c3cncnc3)c3ccc(F)cc3F)nc2)cc1)C(F)(F)F (racemic) [Example 38], the pest or weed control at 50 ppm [3] was under 40% and the MIC [2] was 0.5 to 1.5 µg/mL (≈ 0.892 to 2.68 µM).

In the case of OC(c1nc[nH]n1)(c1ccc(F)cc1F)C(F)(F)c1ccc(C#Cc2ccc(F)cc2)cn1 (racemic) [Example 27], the pest or weed control at 50 ppm [3] is reported as under 40% and the MIC [2] is reported as over 4 µg/mL.

Work on CC(C)(C)C(O)(c1cncnc1)C(F)(F)c1ccc(C#Cc2ccc(F)cc2)cn1 (racemic) [Example 48] yielded a pest or weed control at 50 ppm [3] of under 40% and an MIC [2] of at most 0.5 µg/mL.
